Data as given in patent publication US8178668B2, “2-aminopyridine kinase inhibitors” (OSI Pharmaceuticals, LLC, priority 2008, dated 2012).
Where a name gives a salt, the structure may show the parent alone.

Legend:
MET (human) = MET (human) (Homo sapiens, UniProt P08581); test: MET kinase AlphaScreen assay (Km of ATP); format: biochemical; settings: ATP at Km; at least duplicate experiments
Protocol: (§1) Person skilled in the art will appreciate that a variety of assay formats may be used to determine the activity of the compounds of this invention. For example, AlphaScreen (Amplified Luminescent Proximity Homogeneous Assay) technology was used with the kinases described below. Assay ATP concentrations for individual kinases are included in the text.
MET (human)—Km of ATP: MET assay is performed in a 384 well assay containing 200 ng/μL biotinylated poly(Glu,Tyr), 0.334 mM vanadate, desired concentration of ATP optimized for the enzyme in assay buffer (50 mM HEPES (pH=7.4), 5 mM MgCl2, 5 mM MnCl2, and 1% glycerol). Desired compound is added in a final concentration of 1% DMSO with control being vehicle of DMSO alone. MET is diluted to the optimized concentration (optimized on a lot-by-lot basis) in an enzyme diluent buffer (50 mM Tris pH=7.4, 1% glycerol, 0.03% Brij35, 0.24 mM EGTA, 1 mM DTT, and 0.003% BSA). Enzyme is added to initiate the reaction and incubated for 60 min at RT. In subdued light, appropriate amount of PT66 donor and acceptor beads (diluted 1:260 from manufacturer's provision in a 25 mM Tris HCl (pH=7.5), 400 mM NaCl, 100 mM EDTA, 0.3% BSA buffer) are added to the wells. The plates, incubated for 1 h, are read on an AlphaQuest plate reader

RON (human) = RON (human) (Homo sapiens, UniProt Q04912); test: RON kinase AlphaScreen assay (Km of ATP); format: biochemical; settings: ATP at Km; at least duplicate experiments
Sequence of RON (human) (Q04912 25-1400): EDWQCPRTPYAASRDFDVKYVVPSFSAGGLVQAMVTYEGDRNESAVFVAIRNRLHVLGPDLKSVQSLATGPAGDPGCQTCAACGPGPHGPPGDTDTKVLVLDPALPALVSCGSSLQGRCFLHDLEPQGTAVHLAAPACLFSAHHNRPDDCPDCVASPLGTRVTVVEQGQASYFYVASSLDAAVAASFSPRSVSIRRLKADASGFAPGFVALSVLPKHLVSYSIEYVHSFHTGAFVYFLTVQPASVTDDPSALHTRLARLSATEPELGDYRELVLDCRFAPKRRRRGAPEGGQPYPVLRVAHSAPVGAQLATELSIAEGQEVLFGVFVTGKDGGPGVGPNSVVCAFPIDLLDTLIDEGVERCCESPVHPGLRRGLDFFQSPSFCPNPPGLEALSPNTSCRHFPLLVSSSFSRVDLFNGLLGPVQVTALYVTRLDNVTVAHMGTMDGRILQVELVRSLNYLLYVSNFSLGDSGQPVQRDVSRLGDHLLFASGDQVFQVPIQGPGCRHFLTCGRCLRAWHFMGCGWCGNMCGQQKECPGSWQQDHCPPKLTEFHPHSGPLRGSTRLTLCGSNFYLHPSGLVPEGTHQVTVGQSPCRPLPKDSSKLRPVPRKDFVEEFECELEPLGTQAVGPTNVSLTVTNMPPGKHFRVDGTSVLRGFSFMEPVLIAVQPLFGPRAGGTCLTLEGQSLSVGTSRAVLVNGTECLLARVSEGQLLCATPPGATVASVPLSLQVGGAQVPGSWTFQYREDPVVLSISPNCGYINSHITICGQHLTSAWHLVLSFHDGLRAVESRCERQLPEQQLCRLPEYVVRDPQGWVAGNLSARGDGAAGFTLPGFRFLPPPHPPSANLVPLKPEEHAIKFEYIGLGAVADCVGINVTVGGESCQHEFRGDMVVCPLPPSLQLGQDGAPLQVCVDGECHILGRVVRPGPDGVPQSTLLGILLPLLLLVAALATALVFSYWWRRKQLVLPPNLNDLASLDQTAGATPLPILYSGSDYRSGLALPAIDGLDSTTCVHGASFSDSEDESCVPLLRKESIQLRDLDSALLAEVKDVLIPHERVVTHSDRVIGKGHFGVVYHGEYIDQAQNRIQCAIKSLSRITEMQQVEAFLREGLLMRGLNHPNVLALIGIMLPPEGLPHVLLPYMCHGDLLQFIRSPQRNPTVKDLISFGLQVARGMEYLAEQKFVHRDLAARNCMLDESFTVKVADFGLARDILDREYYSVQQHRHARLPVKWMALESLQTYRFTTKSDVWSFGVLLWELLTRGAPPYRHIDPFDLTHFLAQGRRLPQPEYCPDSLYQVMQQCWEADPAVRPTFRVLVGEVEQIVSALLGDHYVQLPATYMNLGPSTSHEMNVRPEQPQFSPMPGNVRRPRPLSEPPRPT
Protocol: as §1
RON (human)—Km of ATP: RON assay is performed in a 384 well assay containing 200 ng/μL biotinylated poly(Glu,Tyr), 0.334 mM vanadate, desired concentration of ATP optimized for the enzyme in assay buffer (50 mM HEPES (pH=7.4), 12.5 mM MgCl2 and 1% glycerol). Desired compound is added in a final concentration of 1% DMSO with control being vehicle of DMSO alone. RON is diluted to the optimized (on a lot-by-lot basis) concentration in an enzyme diluent buffer (50 mM HEPES pH=7.4, 12.5 mM MgCl2 and 1% glycerol, 0.03% Brij35, 0.3 mM EGTA, lmM DTT, and 0.003% BSA). Enzyme is added to initiate the reaction and incubated for 30 min at RT. In subdued light, appropriate amount of PT66 donor and acceptor beads (diluted 1:260 from manufacturer's provision in a 25 mM Tris HCl (pH=7.5), 200 mM NaCl, 100 mM EDTA, 0.3% BSA buffer) are added to the wells. The plates, incubated for 1 h, are read on an AlphaQuest plate reader.

Sequence of MET (human) (P08581 25-1390): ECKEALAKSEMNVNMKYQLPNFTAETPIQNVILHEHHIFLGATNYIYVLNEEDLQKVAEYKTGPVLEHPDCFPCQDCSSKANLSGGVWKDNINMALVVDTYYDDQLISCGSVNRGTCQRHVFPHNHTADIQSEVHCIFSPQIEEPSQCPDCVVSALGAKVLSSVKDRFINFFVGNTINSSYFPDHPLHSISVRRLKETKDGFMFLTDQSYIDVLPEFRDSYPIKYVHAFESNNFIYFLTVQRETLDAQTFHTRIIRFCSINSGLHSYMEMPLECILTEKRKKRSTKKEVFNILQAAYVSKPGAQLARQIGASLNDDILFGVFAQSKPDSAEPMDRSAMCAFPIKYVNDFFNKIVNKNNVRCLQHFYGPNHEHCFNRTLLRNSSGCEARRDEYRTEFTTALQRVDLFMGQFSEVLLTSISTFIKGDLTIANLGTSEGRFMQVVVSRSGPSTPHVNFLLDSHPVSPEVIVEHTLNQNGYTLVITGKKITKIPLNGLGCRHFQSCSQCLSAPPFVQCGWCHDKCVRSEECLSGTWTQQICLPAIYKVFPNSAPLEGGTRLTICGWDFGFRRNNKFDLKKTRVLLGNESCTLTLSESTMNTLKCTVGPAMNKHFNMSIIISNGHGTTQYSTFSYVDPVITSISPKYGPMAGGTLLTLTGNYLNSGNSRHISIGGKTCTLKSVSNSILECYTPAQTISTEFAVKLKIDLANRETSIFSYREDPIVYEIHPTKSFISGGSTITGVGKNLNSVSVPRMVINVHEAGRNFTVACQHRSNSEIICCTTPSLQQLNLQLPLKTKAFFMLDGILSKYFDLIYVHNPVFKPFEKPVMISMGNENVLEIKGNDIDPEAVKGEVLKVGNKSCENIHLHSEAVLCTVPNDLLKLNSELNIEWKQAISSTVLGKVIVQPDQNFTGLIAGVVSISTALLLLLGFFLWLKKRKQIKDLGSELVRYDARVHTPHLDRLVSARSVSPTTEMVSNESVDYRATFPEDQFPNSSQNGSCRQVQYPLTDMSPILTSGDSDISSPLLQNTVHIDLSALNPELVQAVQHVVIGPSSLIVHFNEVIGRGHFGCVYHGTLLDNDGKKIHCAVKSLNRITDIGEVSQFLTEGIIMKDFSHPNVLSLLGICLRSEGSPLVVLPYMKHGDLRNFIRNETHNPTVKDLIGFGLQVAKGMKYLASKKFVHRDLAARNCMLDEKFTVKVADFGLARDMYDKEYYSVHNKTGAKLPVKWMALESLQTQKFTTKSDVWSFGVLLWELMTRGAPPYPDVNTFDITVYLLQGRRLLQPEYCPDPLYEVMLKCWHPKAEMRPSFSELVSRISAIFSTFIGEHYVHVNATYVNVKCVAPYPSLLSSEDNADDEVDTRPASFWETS

Compound	IC50 (MET (human))	IC50 (RON (human))
CN1CCN(c2ncc(-c3cnc(N)c(-c4cc5c(Cl)ccc(F)c5cn4)c3)s2)CC1 [Example 60, 3-(5-Chloro-8-fluoroisoquinolin-3-yl)-5-[2-(4-methylpiperazin-1-yl)-thiazol-5-yl]-pyridin-2-ylamine trihydrochloride]	1000 to 20000 nM	1000 to 20000 nM
Nc1ncc(-c2cnc(N3CCOCC3)s2)cc1-c1cc2c(Cl)ccc(F)c2cn1 [Example 61, 3-(5-Chloro-8-fluoroisoquinolin-3-yl)-5-(2-morpholin-4-ylthiazol-5-yl)-pyridin-2-ylamine]	> 20000 nM	> 20000 nM
CN1C2CCC1CC(n1cc(-c3cnc(N)c(-c4cc5c(Cl)ccc(F)c5cn4)c3)cn1)C2 (stereo not drawn) [Example 64, 3-(5-Chloro-8-fluoroisoquinolin-3-yl)-5-[1-(8-methyl-8-azabicyclo [3.2.1]-oct-3-yl)-1H-pyrazol-4-yl]-pyridin-2-ylamine]	100 to 1000 nM	100 to 1000 nM
Cn1cc(-c2cnc(N)c(-c3cc4c(Cl)ccc(F)c4cn3)c2)cn1 [Example 65, 3-(5-Chloro-8-fluoroisoquinolin-3-yl)-5-(1-methyl-1H-pyrazol-4-yl)-pyridin-2-ylamine bis-hydrochloride]	1000 to 20000 nM	1000 to 20000 nM
CC(C)n1cc(-c2cnc(N)c(-c3cc4c(Cl)ccc(F)c4cn3)c2)cn1 [Example 66, 3-(5-Chloro-8-fluoroisoquinolin-3-yl)-5-(1-isopropyl-1H-pyrazol-4-yl)-pyridin-2-ylamine bis-hydrochloride]	1000 to 20000 nM	1000 to 20000 nM
CN(C)C(=O)N1CCC(n2cc(-c3cnc(N)c(-c4cc5c(Cl)ccc(F)c5cn4)c3)cn2)CC1 [Example 67, 4-4-[6-Amino-5-(5-chloro-8-fluoroisoquinolin-3-yl)-pyridin-3-yl]-pyrazol-1-ylpiperidine-1-carboxylic acid dimethylamide bis-hydrochloride]	100 to 1000 nM	100 to 1000 nM
NC(=O)N1CCC(n2cc(-c3cnc(N)c(-c4cc5c(Cl)ccc(F)c5cn4)c3)cn2)CC1 [Example 68, 4-4-[6-Amino-5-(5-chloro-8-fluoroisoquinolin-3-yl)-pyridin-3-yl]-pyrazol-1-ylpiperidine-1-carboxamide bis-hydrochloride]	100 to 1000 nM	100 to 1000 nM
Nc1ncc(-c2cnn(C3CCN(CC(F)(F)F)CC3)c2)cc1-c1cc2c(Cl)ccc(F)c2cn1 [Example 69, 3-(5-Chloro-8-fluoroisoquinolin-3-yl)-5-1-[1-(2,2,2-trifluoroethyl)-piperidin-4-yl]-1H-pyrazol-4-yl-pyridin-2-ylamine bis-hydrochloride]	1000 to 20000 nM	1000 to 20000 nM
COCCN1CCC(n2cc(-c3cnc(N)c(-c4cc5c(Cl)ccc(F)c5cn4)c3)cn2)CC1 [Example 70, 3-(5-Chloro-8-fluoroisoquinolin-3-yl)-5-1-[1-(2-methoxyethyl)-piperidin-4-yl]-1H-pyrazol-4-yl-pyridin-2-ylamine]	100 to 1000 nM	1000 to 20000 nM
Nc1ncc(-c2cnn([C@@H]3CN[C@H](C(=O)N4CCCC4)C3)c2)cc1-c1cc2c(Cl)ccc(F)c2cn1 [Example 73, ((2S,4S)-4-{4-[6-Amino-5-(5-chloro-8-fluoroisoquinolin-3-yl)-pyridin-3-yl]-pyrazol-1-yl}-pyrrolidin-2-yl)-pyrrolidin-1-ylmethanone]	100 to 1000 nM	100 to 1000 nM
COCCNC(=O)[C@@H]1C[C@H](n2cc(-c3cnc(N)c(-c4cc5c(Cl)ccc(F)c5cn4)c3)cn2)CN1 [Example 74, (2S,4S)-4-{4-[6-Amino-5-(5-chloro-8-fluoroisoquinolin-3-yl)-pyridin-3-yl]-pyrazol-1-yl}-pyrrolidine-2-carboxylic acid (2-methoxyethyl)-amide]	1000 to 20000 nM	1000 to 20000 nM
Nc1ncc(-c2ccsc2)cc1-c1cc2c(Cl)ccc(F)c2cn1 [Example 76, 3-(5-Chloro-8-fluoroisoquinolin-3-yl)-5-thiophen-3-ylpyridin-2-amine]	> 20000 nM	> 20000 nM
Nc1ncc(-c2ccccc2)cc1-c1cc2c(Cl)ccc(F)c2cn1 [Example 77, 3-(5-Chloro-8-fluoroisoquinolin-3-yl)-5-phenylpyridin-2-amine]	> 20000 nM	> 20000 nM
Nc1ncc(-c2cccnc2)cc1-c1cc2c(Cl)ccc(F)c2cn1 [Example 78, 5-(5-Chloro-8-fluoroisoquinolin-3-yl)-3,3′-bipyridin-6-amine]	1000 to 20000 nM	1000 to 20000 nM
Nc1ncc(-c2ccncc2)cc1-c1cc2c(Cl)ccc(F)c2cn1 [Example 79, 5-(5-Chloro-8-fluoroisoquinolin-3-yl)-3,4′-bipyridin-6-amine]	1000 to 20000 nM	1000 to 20000 nM
CC(C)(C)OC(=O)N1CC=C(c2cnc(N)c(-c3cc4c(Cl)ccc(F)c4cn3)c2)CC1 [Example 80]	1000 to 20000 nM	1000 to 20000 nM
Nc1ccc(-c2cnc(N)c(-c3cc4c(Cl)ccc(F)c4cn3)c2)cn1 [Example 81, 5-(5-Chloro-8-fluoroisoquinolin-3-yl)-3,3′-bipyridine-6,6′-diamine]	1000 to 20000 nM	1000 to 20000 nM
CC(=O)Nc1ccc(-c2cnc(N)c(-c3cc4c(Cl)ccc(F)c4cn3)c2)cc1 [Example 82, N-4-[6-Amino-5-(5-chloro-8-fluoroisoquinolin-3-yl)pyridin-3-yl]phenylacetamide]	1000 to 20000 nM	> 20000 nM

The remaining lines, values ahead:

IC50 (MET (human))	IC50 (RON (human))	Compound
100 to 1000 nM	1000 to 20000 nM	Nc1ncc(-c2cnn(C3CCNCC3)c2)cc1-c1cc2c(-c3cccnc3)ccc(F)c2cn1 [Example 54, 3-(8-Fluoro-5-pyridin-3-ylisoquinolin-3-yl)-5-(1-piperidin-4-yl-1H-pyrazol-4-yl)-pyridin-2-ylamine trihydrochloride pyridin-2-ylamine trihydrochloride]
100 to 1000 nM	1000 to 20000 nM	Nc1ncc(-c2cnn(C3CCNCC3)c2)cc1-c1cc2c(-c3nccs3)ccc(F)c2cn1 [Example 55, 3-(8-Fluoro-5-thiazol-2-ylisoquinolin-3-yl)-5-(1-piperidin-4-yl-1H-pyrazol-4-yl)-pyridin-2-ylamine trihydrochloride]
100 to 1000 nM	100 to 1000 nM	Nc1ncc(-c2cnn(C3CCNCC3)c2)cc1-c1cc2c(-c3cncs3)ccc(F)c2cn1 [Example 56, 3-(8-Fluoro-5-thiazol-5-ylisoquinolin-3-yl)-5-(1-piperidin-4-yl-1H-pyrazol-4-yl)-pyridin-2-ylamine trihydrochloride]
100 to 1000 nM	1000 to 20000 nM	Nc1ncc(-c2cnn(C3CCN(C=O)CC3)c2)cc1-c1cc2c(Cl)ccc(F)c2cn1 [Example 57, 4-4-[6-Amino-5-(5-chloro-8-fluoroisoquinolin-3-yl)-pyridin-3-yl]-pyrazol-1-ylpiperidine-1-carbaldehyde]
100 to 1000 nM	100 to 1000 nM	CN1CCC(n2cc(-c3cnc(N)c(-c4cc5c(Cl)ccc(F)c5cn4)c3)cn2)CC1 [Example 58, 3-(5-Chloro-8-fluoroisoquinolin-3-yl)-5-[1-(1-methylpiperidin-4-yl)-1H-pyrazol-4-yl]-pyridin-2-ylamine]
100 to 1000 nM	100 to 1000 nM	Nc1ncc(-c2cnn([C@@H]3CCNC3)c2)cc1-c1cc2c(Cl)ccc(F)c2cn1 [Example 62, 3-(5-Chloro-8-fluoroisoquinolin-3-yl)-5-((R)-1-pyrrolidin-3-yl-1H-pyrazol-4-yl)-pyridin-2-ylamine trihydrochloride]
100 to 1000 nM	100 to 1000 nM	Nc1ncc(-c2cnn([C@H]3CCNC3)c2)cc1-c1cc2c(Cl)ccc(F)c2cn1 [Example 63, 3-(5-Chloro-8-fluoroisoquinolin-3-yl)-5-((S)-1-pyrrolidin-3-yl-1H-pyrazol-4-yl)-pyridin-2-ylamine trihydrochloride]
≤ 100 nM	100 to 1000 nM	CN(C)C(=O)[C@@H]1C[C@H](n2cc(-c3cnc(N)c(-c4cc5c(Cl)ccc(F)c5cn4)c3)cn2)CN1 [Example 71, (2S,4S)-4-{4-[6-Amino-5-(5-chloro-8-fluoroisoquinolin-3-yl)-pyridin-3-yl]-pyrazol-1-yl}-pyrrolidine-2-carboxylic acid dimethylamide]
≤ 100 nM	100 to 1000 nM	Nc1ncc(-c2cnn([C@@H]3CN[C@H](C(=O)N4CCOCC4)C3)c2)cc1-c1cc2c(Cl)ccc(F)c2cn1 [Example 72, ((2S,4S)-4-{4-[6-Amino-5-(5-chloro-8-fluoroisoquinolin-3-yl)-pyridin-3-yl]-pyrazol-1-yl}-pyrrolidin-2-yl)-morpholin-4-ylmethanone]
